Where a SMILES comes first, the peptide text is derived from it.
Molecular target: T1, UBR4^UBR (UBR box of Human UBR4) (Homo sapiens, UniProt Q5T4S7)
T1 construct: UBR box residues 1660-1729 (Methods; Results b12 prints 1669-1729); N-terminal 10His-MBP tag kept for ITC, cut with TEV for crystals; E. coli BL21(DE3) RIL; three zinc ions; crystal 8J9R from YIFS-UBR4 (YIFS fused at N-terminus, LC3B tag removed by ATG4B)
Test: ITC
Format: binding
Settings: pH 7.5, 200 mM NaCl, 25 °C; 0.225 mM protein, 4.5 mM peptide; 10His-MBP-tagged protein

T1 sequence (Q5T4S7 1660-1729): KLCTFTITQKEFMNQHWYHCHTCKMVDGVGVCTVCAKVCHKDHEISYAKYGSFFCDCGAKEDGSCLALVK

CC[C@H](C)[C@H](NC(=O)[C@@H](N)CCCNC(=N)N)C(=O)N[C@@H](Cc1ccccc1)C(=O)N[C@@H](CO)C(=O)O [RIFS] (H-RIFS-OH)
Kd: 626 ± 29 µM

Source: PMC10687169, “Insights into the recognition mechanism in the UBR box of UBR4 for its specific substrates” (Communications Biology, 2023)
